Results on two compounds are retold here after patent publication US12377069B2, “Compounds, compositions, methods of using, and methods for preparing compounds” (UNIVERSITY OF LOUISVILLE RESEARCH FOUNDATION, INC., priority 2018, dated 2025).

One experiment has as its system HT29 or Caco2 cells. The experiment in a line: Tight junction protein expression (RT PCR, immunoblot, confocal). It counts as cell-based, human. The settings on record: 24 h; for tight junction protein levels (Western blots; Cldn4 confocal imaging): HT29 and Caco2, 50 μM. The procedure: Real time PCR: Total RNA was isolated from cells/tissue using Maxwell® 16 LEV simplyRNA tissue kit (Promega) and reverse transcribed with TaqManC Reverse transcription Kit (Applied Biosystems, CA, USA). The transcribed cDNA (after dilution) was mixed with 100 nM gene specific primers (Real time primers LLC) and 1×SYBR green reaction mix (Power SYBR® Green PCR Master Mix; Applied Biosystems, CA, USA). Changes in gene expression was analyzed using CFX96™ Real-Time System (Bio Rad) and fold change in expression was calculated using 2^ΔΔCT method using GAPDH/0-actin as house keeping gene and normalized with untreated control.
Immunoblots (Western blots): The total protein lysates were collected either from colon tissue/cells using radioimmunoprecipitation assay (RIPA) buffer (Sigma-Aldrich, USA) and quantified using BCA protein quantification kit (Thermo Scientific) as per instructional manual. Total protein (20-50 μg) of was resolved on NuPAGE™ 4-12% Bis-Tris gel (Novex Life technologies) and transferred to polyvinylidene difluoride membrane (0.22 μm pore; Millipore, USA). After blocking with 5% (w/v) skim milk powder (containing 1×TBS) for 1 h, the membrane was then incubated with respective antibodies at 4° C. overnight (dilutions of respective antibodies is given in Table A1). Next day, respective secondary antibody conjugated with Horseradish peroxidase were probed and the chemiluminescent substrate was used to detect the protein bands (ImageQuant LAS 4000). Densitometry analysis of bands were done using ImageJ software. Antibodies for Cldn4, Ocln, Cldn1, Cyp1A1, AhR, HO1, NQO1, Keap1, β-actin and Lamin B were purchased from Santa Cruz Biotechnologies (USA) and Nrf2 from Novus Biologicals (USA).
Confocal Imaging: HT29 or CaCo2 or BMDM cells (50,000 cells/well) were plated on to 8-well chambered slides (154534PK; ThermoFisher Scientific) allowed them to grow overnight. The cells were induced with vehicle (0.01% DMSO) or UroA (50 μM) or UAS03 (50 μM) for desired time points and fixed with cold methonol. […]
(In western blotting, separated proteins are transferred to a membrane and probed.)

For the next experiment, the system named is C57BL/6 mice. The experiment in a line: In vivo Evans Blue permeability assay (LPS). The settings on record: LPS 100 μg i.p.; for LPS-induced TNF-α levels in serum and BAL fluid: 20 mg/kg; for tissue accumulation of Evans Blue (lung and liver): 20 mg/kg after 1 h and 18 h. Details: species or system mouse. The procedure: Acute intoxication of alcohol can induce microvasculature leakage as well as direct exposure to endothelium leads to disruption of endothelial integrity. […] In addition, increased endothelial permeability enhances the extravasation of immune cells into liver leading to increased inflammation. To examine the effect of UroA/UAS03 on endothelial cell permeability, we utilized in vivo Evans Blue permeability assay. Briefly, C57BL/6 mice (n=4/group) were given LPS (100 μg) i.p. followed by treatment with UAS03 or UroA (20 mg/kg) after 1 h and 18 h. Evans blue (i.v.) was given to mice (24 h post LPS treatment) and 30 min later mice were euthanized and the Evans Blue from lung and liver tissues was extracted using formamide. The levels of Evans Blue was determined by OD at 620 nm. […] To evaluate direct impact of UroA or UAS03 on endothelial barrier function, we used in vivo Miles assay to test blood vessel permeability. We used vascular endothelial growth factor (VEGF) as vasodilator. In this assay, C57BL/6 mice (n=3 per group) were given vehicle or UroA or UAS03 (20 mg/kg; oral gavage). After 3 h, Evans blue (100 μL of 1% solution) was administered i.v. followed by intra-dermal administration of VEGF (2.5 ng/mouse) or PBS (control). After 30 min, mice were euthanized and the levels of Evans Blue in skin tissue surrounding the injection site was extracted and estimated as described previously (FIG. 36C). […] To understand molecular mechanisms of UroA/UAS03 mediated endothelial barrier function, we tested the effects of these compounds in Human Umbilical Vein Endothelial Cells (HUVECs). Endotoxins or inflammatory mediators are responsible for decreasing the cell-cell and cell-matrix adhesion leading to increased barrier gaps and permeability. The VE-Cadherin (CDH5), an adherins junction (AJ) protein, can maintain the integrity of endothelial junctions through homotypic interactions with adjacent cell.

The test system of another experiment is Caco-2 monolayer cells. The experiment in a line: Caco2 monolayer TEER and FITC-dextran permeability (EtOH, LPS, HMGB1). It counts as cell-based, human. The settings on record: for TEER / Ocln expression: EtOH 350 mM (2%); for TEER: 10, 25, 50 μM pre-treatment 24 h; for Ocln expression: 10, 25, 50 μM, 24 h. The method, then:
FIG. 13: Caco2 cells were grown as monolayer on transwell membrane filters. (A) Cells were treated with 40 mM EtOH and FITC-dextran permeability was performed in time dependent manner. (B-F) Cells were treated with respective Urolithins (50 μM) and Ellagic acid (50 μM) or different doses of UroA (B) for 24 hrs. After treatments, cells were treated with ethanol (40 mM) (B, D) or 400 mM (E, F), LPS (100 ng/mL), HMGB1 (500 ng/mL) for 2 hrs and washed with PBS. FITC-Dex (1 mg/mL) solution was added (100 μl) on apical side. Permeability of FITC-Dex across the monolayer as well as TEER values were measured after 2 hr. […] Confocal images of TJ proteins staining. Statistics performed using unpaired t-test. *p<0.05, **p<0.01, *** p<0.001, Error bars, ±SEM.
Caco2 cells on transwell membrane were pre-treated with vehicle or UroA or UAS03 (10, 25, 50 μM) for 24 h followed by addition of alcohol (2%) for 24 h. TEER values (A) and the FITC-dextran permeability assay (B) was performed as described in FIG. 2. Statistics performed using unpaired t-test using Graphpad Prism software. Error bars, ±SEM; ***p<0.001; **p<0.01. (C) Caco2 cells were treated with alcohol (EtOH) (350 mM or 2%) in the presence or with UroA or UAS03 (10, 25, 50 μM) for 24 h and determined expression of Ocln by Western blots. Representative of 3 independent blots was shown.
UroA upregulate TJ proteins and protect against EtOH induced damage. […] For this purpose, we utilized Caco-2 monolayer cells on transwell membranes and performed transepithelial electrical resistance (TEER) and FITC-dextran permeability assays. […] Gut barrier dysfunction leads to elevated intestinal permeability thus increasing circulating levels of endotoxins. Endotoxins such as LPS (representative for PAMP) and HMGB1 (representative for DAMP) induce several inflammatory cytokines, chemokines and ROS leading to further enhancement of systemic inflammation to promote pathogenesis of ALD.
We tested whether UAS03 could protect against higher dose of EtOH (350 mM) induced barrier dysfunction in Caco2 monolayer cells.

For the compound `Oc1ccc2c(c1)COc1cc(O)ccc1-2` [UAS03, 6H-benzo[c]chromene-3,8-diol], the “tight junction protein levels (Western blots; Cldn4 confocal imaging)” value in the experiment on HT29 or Caco2 cells is reported as “increased levels”. For the same compound, in the experiment on C57BL/6 mice, the “LPS-induced TNF-α levels in serum and BAL fluid” value was “reduced LPS-induced TNF-α levels”; the “tissue accumulation of Evans Blue (lung and liver)” value is “reduced tissue accumulation of Evans Blue”. Moreover, in the experiment with Caco-2 monolayer cells, the TEER entry is reported as “increased TEER” and the Ocln expression entry is given as “increased TJ protein”.
For the compound `O=c1oc2cc(O)ccc2c2ccc(O)cc12` [UroA, 3,8-dihydroxy-6H-dibenzo[b,d]pyran-6-one], the “expression of ZO-1 and Ocln1 (real time PCR)” value in the experiment with HT29 or Caco2 cells (HT29, 50 μM) is on record as “increase in expression”. For the same compound, the “tight junction protein levels (Western blots; Cldn4 confocal imaging)” value in the experiment with HT29 or Caco2 cells is recorded as “increased levels”. Also, in the experiment on C57BL/6 mice, the “LPS-induced TNF-α levels in serum and BAL fluid” value was “reduced LPS-induced TNF-α levels”; the “tissue accumulation of Evans Blue (lung and liver)” value is recorded as “reduced tissue accumulation of Evans Blue”. Moreover, in the experiment with Caco-2 monolayer cells, the TEER entry is reported as “increased TEER” and the Ocln expression entry is recorded as “increased TJ protein”. The TEER values result with Caco-2 monolayer cells (EtOH 400 mM) was “enhanced TEER values”. In addition, the “EtOH induced damage of tight junction proteins (ZO-1, Ocln)” value in the experiment with Caco-2 monolayer cells (Western blots, confocal images) is listed as “protects against EtOH induced damage of tight junction proteins”.
